Tested on: Plodia interpunctella adult females
Test: flight tunnel bioassay of attraction (upwind progress score)
Assay type: in vivo
Parameters: key to Score (flight tunnel bioassay): 0.25 per quarter line crossed; final 0.25 for contacting test subject
Conditions: for Score (flight tunnel bioassay): day 22 Plodia females, ten females per test, observed ten minutes, 0.25 per quarter line crossed and for contact
Experimental: All tests were conducted in a clear, acrylic flight chamber 75 cm (L), 22 cm (W), 24 cm (H). Room air was pushed through the chamber with a 115 volt, 0.35 Amp motor-driven roller fan. Air speed was maintained at 0.4 m/sec. The chamber was positioned horizontally on a table in a walk-in environmental chamber maintained at 30° C. and 65% R.H. The only light was provided by a 25 Watt red filtered incandescent bulb centrally positioned 90 cm above tunnel floor and providing 9.0 Lux at the floor center.
Insects used were laboratory reared Plodia interpuctella. Ten 4-day old adult females from a general rearing box were selected and transferred into a 7 dram screened plastic vial for each test. Tests were performed only during the first four hours of the scotophase. Test subjects consisted of either natural products held in a glass Petri dish (Kimax, 5 cm diameter) or liquid volatiles pipetted onto a filter paper disc (Whatman #3, 2.3 cm) held off the floor by a plastic disc (5 cm diameter). These were placed upwind. A test began when the vial containing the moths was placed on the floor down-wind and the lid of the vial was removed. Distance between vial and test material was 62 cm. […] A final 0.25 was scored for actually contacting the test subject. Individual moths were tested only once.
Volatiles from natural products were collected for twenty-four hours by passing commercial, compressed nitrogen through a 150 cm^3 glass collection chamber (Analytical Research Systems) connected by tubing to an inert filter trap of 20 mg SuperQ (Alltech Associates). The collected volatiles were eluted with 150 ul dichloromethane and then bioassayed in the flight tunnel and analyzed by GC-MS. The SuperQ filter traps were rinsed with 200 ul dichloromethane immediately before each use.

SMILES	Score (flight tunnel bioassay) (Table 1)	Score (flight tunnel bioassay) (Table 2)	attractiveness alone (dilutions in dichloromethane, FIG. 3)
CCCCC(C)=O [2-hexanone]	3.63	3.63	–
CC1=CC[C@H]2[C@H]3[C@@H]1[C@]2(C)CC[C@H]3C(C)C [a-copaene]	3.07	3.07	–
CC1(C)C2CCC1(C)C(O)C2 (stereo not drawn) [borneol]	2.83	2.83	–
Cc1ccc(C(C)C)cc1 [cymene]	3.00	3.00	–
CCCCCC=CCCC(=O)OCC [ethyl 4-decenoate]	3.50	3.50	–
CCOc1cc(C=O)ccc1O [ethyl vanillin]	2.63	2.63	–
CCCCCCOC(C)=O [hexyl acetate]	3.60	3.60	–
CCCCCCCC(=O)OC [methyl octanoate]	2.91	2.91	–
C=CC(=C)CCC=C(C)C [myrcene]	2.95	2.95	–
CCC/C=C/CO [trans-2-hexen-1-ol]	3.00	3.00	–
CCCCCCCCCCC [undecane]	–	–	unattractive alone

From patent US8092789B1, “Indian meal moth attractant” (The United States of America, as represented by the …, priority 2009, dated 2012)
